Reference: ChEMBL document CHEMBL4420060, “Combinatorial therapies for the treatment of neoplasias using the opioid growth factor receptor” (2013)
Activity calls are given as the source filed them. No cut-off for these calls is given here.

What was measured:
[1] = tested on: UMSCC1; experiment: Growth inhibition of human UM-SCC-1 cells assessed as decrease in cell number at 1 uM by MTS assay relative to control; assay type: functional, cell-based
[2] = tested on: MIA PaCa-2; experiment: Growth inhibition of human MIAPaCa2 cells assessed as decrease in cell number at 1 uM incubated for 96 hrs by MTS assay relative to control; assay type: functional

SMILES	growth inhibition (GI) [1]	growth inhibition (GI) [2]
CC(C)C[C@@H](NC(=O)[C@H](Cc1ccccc1)NC(=O)CNC(=O)[C@@H](C)NC(=O)[C@@H](N)Cc1ccc(O)cc1)C(=O)O	inactive	inactive
CC1(C)SSC(C)(C)[C@@H](NC(=O)[C@@H](N)Cc2ccc(O)cc2)C(=O)NCC(=O)N[C@@H](Cc2ccccc2)C(=O)N[C@H]1C(=O)O	inactive	inactive
CC[C@H](C)C(NC(=O)[C@@H](NC(=O)[C@H](C)NC(=O)[C@H](CC(N)=O)NC(=O)[C@H](CCCCN)NC(=O)[C@H](Cc1ccccc1)NC(=O)[C@H](CC(C)C)NC(=O)[C@@H](NC(=O)[C@@H](NC(=O)[C@H](CC(C)C)NC(=O)[C@@H]1CCCN1C(=O)[C@@H](NC(=O)[C@H](CCC(N)=O)NC(=O)[C@H](CO)NC(=O)[C@H](CCCCN)NC(=O)[C@H](CCC(=O)O)NC(=O)[C@H](CO)NC(=O)[C@@H](NC(=O)[C@H](CCSC)NC(=O)[C@H](Cc1ccccc1)NC(=O)CNC(=O)CNC(=O)[C@@H](N)Cc1ccc(O)cc1)[C@@H](C)O)C(C)O)C(C)C)[C@@H](C)O)[C@@H](C)CC)C(=O)N[C@@H](CCCCN)C(=O)N[C@@H](CC(N)=O)C(=O)N[C@@H](C)C(=O)N[C@@H](Cc1ccc(O)cc1)C(=O)N[C@@H](CCCCN)C(=O)N[C@@H](CCCCCN)C(=O)NCC(=O)N[C@@H](CCC(=O)O)C(=O)O (some centres not stated)	–	inactive
C[C@@H](NC(=O)[C@@H](N)Cc1ccc(O)cc1)C(=O)NCC(=O)N(C)[C@@H](Cc1ccccc1)C(=O)NCCO	inactive	inactive
